Measured values taken from PubChem BioAssay (NCI).
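In this assay, cells in 96-well plates receive the compound at five concentrations for 48 hours. Endpoints are linearly interpolated between the surrounding concentrations. GI50: concentration for 50% inhibition of growth. TGI is the concentration that stops growth completely.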

Key:
Test in all cases: NCI tumour cell line growth inhibition, 48 h
UO-31 renal = tested on: UO-31 renal
TK-10 renal = tested on: TK-10 renal
HCT-15 colon = tested on: HCT-15 colon
SNB-19 CNS = tested on: SNB-19 CNS
NCI-H226 lung = tested on: NCI-H226 lung
LOX IMVI melanoma = tested on: LOX IMVI melanoma
HT29 colon = tested on: HT29 colon
UACC-62 melanoma = tested on: UACC-62 melanoma
COLO 205 colon = tested on: COLO 205 colon
MDA-MB-231 breast = tested on: MDA-MB-231 breast

SMILES | TGI (UO-31 renal) | TGI (TK-10 renal) | TGI (HCT-15 colon) | TGI (SNB-19 CNS) | TGI (NCI-H226 lung) | TGI (LOX IMVI melanoma) | TGI (HT29 colon) | TGI (UACC-62 melanoma) | TGI (COLO 205 colon) | GI50 (UO-31 renal) | GI50 (TK-10 renal) | GI50 (HCT-15 colon) | GI50 (SNB-19 CNS) | GI50 (NCI-H226 lung) | GI50 (LOX IMVI melanoma) | GI50 (HT29 colon) | GI50 (UACC-62 melanoma) | GI50 (COLO 205 colon) | GI50 (MDA-MB-231 breast) | TGI (MDA-MB-231 breast)
Nc1ccccc1C(=O)/C=C/c1c(O)ccc2ccccc12 | > 100 µM | > 100 µM | > 100 µM | > 100 µM | > 100 µM | 44.9 µM | > 100 µM | > 100 µM | > 100 µM | – | – | – | – | – | – | – | – | – | – | –
O=[N+]([O-])c1cccc(C2=NOC(C3CCCCC3)C2)c1 (centres undefined) | > 100 µM | > 100 µM | > 100 µM | – | > 100 µM | – | > 100 µM | > 100 µM | > 100 µM | – | – | – | – | – | – | – | – | – | – | –
O=C(CC(=O)C1CCOC1=O)C(=O)Nc1cccc(Cl)c1 (centres undefined) | > 100 µM | > 100 µM | > 100 µM | > 100 µM | > 100 µM | > 100 µM | > 100 µM | > 100 µM | > 100 µM | – | – | – | – | – | – | – | – | – | – | –
COc1ccc(CC2c3c(cc(OC)c(OC)c3OC)CCN2C)cc1OC (centres undefined) | > 100 µM | > 100 µM | > 100 µM | > 100 µM | – | – | > 100 µM | – | – | – | – | – | – | – | – | – | – | – | – | –
CC1CC(O)C(=O)C(O[C@@H]2C[C@@H]3CC[C@@H]4[C@H](CC[C@]5(C)C(C6=CC(=O)OC6)CC[C@]45O)[C@@]3(C=O)C[C@H]2O)O1 (some centres undefined) | 0.22 µM | 0.173 µM | 0.0716 µM | 0.0316 µM | 0.228 µM | 0.0681 µM | 0.171 µM | 0.178 µM | 0.491 µM | – | – | – | – | – | – | – | – | – | – | –
CC(C)CCC[C@@H](C)C1CCC2[C@@H]3CC=C4C[C@@H](C(=O)NCCN(C)C)CC[C@]4(C)C3CC[C@@]21C (some centres undefined) | 55.1 µM | 69.8 µM | 53.7 µM | > 100 µM | 51.4 µM | > 100 µM | > 100 µM | > 100 µM | 38.3 µM | – | – | – | – | – | – | – | – | – | – | –
CC(C(=O)c1ccc(Cl)cc1)/C(=N/NC(=O)NN)C(=O)Nc1cccc(C(F)(F)F)c1 (centres undefined) | > 100 µM | > 100 µM | > 100 µM | > 100 µM | > 100 µM | > 100 µM | > 100 µM | > 100 µM | > 100 µM | – | – | – | – | – | – | – | – | – | – | –
COc1cccc(/C=N/[N-]C(=O)c2ccncc2)c1[O-].COc1cccc(/C=N/[N-]C(=O)c2ccncc2)c1[O-].[O]=[U](=[O])([OH2+])[OH2+] | 20 µM | > 31.6 µM | > 100 µM | > 100 µM | 28 µM | > 100 µM | > 100 µM | 19.4 µM | > 100 µM | 3.45 µM | 13.1 µM | 4.77 µM | 9.44 µM | 5.01 µM | 4.94 µM | 30.7 µM | 3.66 µM | 4.09 µM | – | –
CC(C)(C)c1ccc2c(c1)S(=O)(=O)Nc1ccc(Cl)cc1NS(=O)(=O)c1cc(C(C)(C)C)ccc1OCCOCCOCCO2 | > 100 µM | > 100 µM | > 100 µM | > 100 µM | > 100 µM | > 100 µM | > 100 µM | > 100 µM | > 100 µM | – | – | – | – | – | – | – | – | – | – | –
Cn1cc(-c2csc(-c3cn(CCCCN4CCCCC4)c4ccccc34)n2)c2cccnc21 | 2.95 µM | 3.05 µM | 2.9 µM | 3.07 µM | – | 3.21 µM | 3.1 µM | 3.27 µM | – | 1.51 µM | 1.61 µM | 1.53 µM | 1.64 µM | – | 1.71 µM | 1.58 µM | 1.79 µM | – | – | –
CC(C)=C1CCC(CN(C)C)C1=O (centres undefined) | > 100 µM | 31 µM | 30.8 µM | > 100 µM | – | – | 41.1 µM | 35.1 µM | 63.4 µM | – | – | – | – | – | – | – | – | – | – | –
NC(=O)C(=O)CC(=O)c1ccccc1NC1=CC(=O)C(=O)c2ccccc21 | > 100 µM | > 100 µM | > 100 µM | > 100 µM | > 100 µM | 36.1 µM | > 100 µM | > 72.4 µM | > 100 µM | – | – | – | – | – | – | – | – | – | – | –
N#CC(=Nc1ccccc1N(C(=O)c1ccccc1)C(=O)c1ccccc1)c1ccccc1 | > 100 µM | > 100 µM | > 90.3 µM | > 54.9 µM | > 100 µM | > 100 µM | > 100 µM | > 100 µM | > 64.6 µM | – | – | – | – | – | – | – | – | – | – | –
COC(=O)C(=O)C(C(C)=O)C(=O)NCc1ccc(OC)c(OC)c1 (centres undefined) | > 100 µM | > 100 µM | > 100 µM | > 100 µM | > 100 µM | > 100 µM | > 100 µM | > 100 µM | > 100 µM | – | – | – | – | – | – | – | – | – | – | –
ClCCN(CCCl)c1ccc(CNc2ccccc2)cc1 | 42.3 µM | – | > 100 µM | > 100 µM | 28.2 µM | 26 µM | > 100 µM | – | > 100 µM | 4.86 µM | – | 10.4 µM | 19 µM | 10.3 µM | 4.52 µM | 20.4 µM | – | 20.8 µM | 28.5 µM | > 100 µM
CCOP(=O)(OCC)C(C(=O)OC)C(=O)C(=O)Nc1ccc(Cl)cc1Cl (centres undefined) | > 100 µM | > 100 µM | > 100 µM | > 100 µM | > 100 µM | > 100 µM | > 100 µM | > 100 µM | > 100 µM | – | – | – | – | – | – | – | – | – | – | –
N#CCCN1C/C(=C/c2ccc(Br)cc2)C(=O)/C(=C/c2ccc(Br)cc2)C1 | 2.92 µM | 5.44 µM | 2.9 µM | 3.76 µM | – | 1.76 µM | 1.24 µM | 4.52 µM | 2.97 µM | 1.47 µM | 2.45 µM | 1.07 µM | 1.59 µM | – | 0.512 µM | 0.338 µM | 1.93 µM | 1.57 µM | 2.95 µM | 11.4 µM
Nc1nc(-c2ccc(Cl)c([N+](=O)[O-])c2)cs1 | > 100 µM | > 100 µM | > 100 µM | > 100 µM | – | > 100 µM | > 100 µM | > 100 µM | > 100 µM | – | – | – | – | – | – | – | – | – | – | –
O=C1NCCS(=O)(=O)N[C@@H](CC2=CC=CCC2)C(=O)N2CCCC12 (some centres undefined) | > 100 µM | > 100 µM | > 100 µM | > 100 µM | > 100 µM | > 100 µM | > 100 µM | > 100 µM | > 100 µM | – | – | – | – | – | – | – | – | – | – | –
O=C(N/C(=C\c1ccc([N+](=O)[O-])cc1)c1nc2ccccc2[nH]1)c1ccccc1 | > 100 µM | > 100 µM | > 100 µM | > 100 µM | – | – | > 100 µM | > 100 µM | > 100 µM | – | – | – | – | – | – | – | – | – | – | –
